≈ marks a conversion by molar mass, not a printed value. Read-outs that look alike come from different tables or passages of the source.
Columns and labels:
[1] = target: T1, full-length beta-Catenin (Uniprot ID P35222) (Homo sapiens, UniProt P35222); assay: Fluorescence polarization IC50 (beta-catenin / 5FAM-TCF4 10-53 competition); type: binding
T1 construct: 10 nM full-length beta-Catenin (Uniprot ID P35222)
T1 sequence (P35222 1-781): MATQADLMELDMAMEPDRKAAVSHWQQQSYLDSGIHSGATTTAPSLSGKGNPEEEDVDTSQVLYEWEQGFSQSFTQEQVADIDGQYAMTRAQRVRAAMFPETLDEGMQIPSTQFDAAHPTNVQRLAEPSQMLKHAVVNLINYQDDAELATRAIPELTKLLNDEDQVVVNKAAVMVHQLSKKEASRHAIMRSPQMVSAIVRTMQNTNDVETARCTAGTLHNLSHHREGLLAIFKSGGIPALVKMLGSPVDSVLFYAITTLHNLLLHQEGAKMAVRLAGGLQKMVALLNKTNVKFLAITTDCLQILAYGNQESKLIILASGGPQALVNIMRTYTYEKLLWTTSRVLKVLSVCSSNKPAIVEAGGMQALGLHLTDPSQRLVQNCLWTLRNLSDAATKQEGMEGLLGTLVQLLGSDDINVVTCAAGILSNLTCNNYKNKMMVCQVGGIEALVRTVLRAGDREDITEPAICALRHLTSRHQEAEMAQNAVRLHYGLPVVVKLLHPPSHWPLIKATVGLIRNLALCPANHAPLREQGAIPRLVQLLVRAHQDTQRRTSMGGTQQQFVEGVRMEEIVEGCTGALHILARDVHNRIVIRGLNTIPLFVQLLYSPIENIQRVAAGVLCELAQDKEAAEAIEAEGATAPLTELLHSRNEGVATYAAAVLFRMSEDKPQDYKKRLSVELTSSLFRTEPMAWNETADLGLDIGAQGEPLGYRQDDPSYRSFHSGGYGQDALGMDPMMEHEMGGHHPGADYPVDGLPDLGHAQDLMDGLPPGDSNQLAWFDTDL

Solubility in PBS = type: physicochemical
Outline: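 The PBS solution was ultracentrifuged and the supernatant analyzed by HPLC. Its peak area was divided by that of a 50 μM peptide DMSO reference injection and multiplied by 50 uM to give solubility.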

[2] = target: T2, beta-catenin/TCF4 engagement (Homo sapiens, UniProt P35222); assay: Nano-BRET target engagement assay (B-cat-Halo & TCF4-Luc in HEK293 cells); type: cell-based; conditions: absolute IC50; read-out: NanoBRET Abs IC50
T2 construct: expressed in transfected cells; host or cells: HEK293
T2 sequence (P35222 1-781): T1 sequence (P35222 1-781)

[3] = fluorescence polarization, read-out: beta-Catenin FP IC50

SMILES | IC50 ([1]; read-out: beta-Catenin FP IC50) | Solubility (Solubility in PBS; Solubility (uM)) | IC50 [2] | IC50 [1, 3] | Solubility (Solubility in PBS) | IC50 ([1]; fluorescence polarization, beta-catenin, read-out: FP EC50)
CC(=O)N1CCC[C@]12CC=CCCCC1(CCCC=CCCCOC(=O)N3CC[C@@](C(=O)N[C@@H](Cc4ccccc4Cl)C(=O)N[C@@H](Cc4csc5ccccc45)C(=O)N[C@@H](CCCCNC(C)C)C(N)=O)(C3)NC(=O)[C@H](CC(N)=O)NC(=O)[C@H](Cc3ccccc3)NC(=O)[C@H](C)NC(=O)[C@H](C)NC(=O)[C@H](CC(=O)O)NC(=O)[C@H](CC(=O)O)NC1=O)NC(=O)[C@H](CC(C)(C)C)NC(=O)[C@H](CC(=O)O)NC2=O (stereo partly drawn) [I-1130, Ac-PL3-Asp-Npg-B5-Asp-Asp-Ala-Ala-Phe-Asn-PyrS2-2C1F-BztA-iPrLys-NH2] | 6 nM | 15 µM (≈ 29.8 µg/mL) | 7600 nM |  |  | 
CC(=O)N1CCC[C@]12CC=CCCCC1(CCCC=CCCCCCC[C@@](C)(C(=O)N[C@@H](Cc3ccsc3)C(=O)N[C@@H](Cc3csc4ccccc34)C(=O)N[C@@H](Cc3c[nH]cn3)C(N)=O)NC(=O)[C@H](CC(C)C)NC(=O)[C@H](Cc3ccccc3)NC(=O)[C@H](C)NC(=O)[C@H](C)NC(=O)[C@H](CC(=O)O)NC(=O)[C@H](CC(=O)O)NC1=O)NC(=O)[C@H](CC(C)(C)C)NC(=O)[C@H](CC(=O)O)NC2=O (stereo partly drawn) [I-1195, Ac-PL3-Asp-Npg-B5-Asp-Asp-Ala-Ala-Phe-Leu-S8-3Thi-BztA-His-NH2] |  |  | 16200 nM | 29.5 nM | 10 µM (≈ 18.8 µg/mL) | 
CC(=O)N1CCC[C@]12CC=CCCCC1(CCCC=CCCCOC(=O)N3CC[C@@](C(=O)N[C@@H](Cc4ccccc4Cl)C(=O)N[C@@H](Cc4csc5ccccc45)C(=O)N[C@H](C(N)=O)[C@@H](C)O)(C3)NC(=O)[C@H](CCCCNC(C)C)NC(=O)[C@H](Cc3ccccc3)NC(=O)[C@H](C)NC(=O)[C@H](C)NC(=O)[C@H](CC(=O)O)NC(=O)[C@H](CC(=O)O)NC1=O)NC(=O)[C@H](CC(C)(C)C)NC(=O)[C@H](CC(=O)O)NC2=O (stereo partly drawn) [I-1279, Ac-PL3-Asp-Npg-B5-Asp-Asp-Ala-Ala-Phe-iPrLys-PyrS2-2C1F-BztA-Thr-NH2] |  | 14 µM (≈ 27.7 µg/mL) | 22900 nM | 12 nM |  | 
CC(=O)N1CCC[C@]12CC=CCCCC1(CCCC=CCCCOC(=O)N3CC[C@@](C(=O)N[C@@H](Cc4ccccc4Cl)C(=O)N[C@@H](Cc4csc5ccccc45)C(=O)N[C@H](CO)[C@@H](C)O)(C3)NC(=O)[C@H](Cc3ccccc3)NC(=O)[C@H](Cc3ccccc3)NC(=O)[C@H](C)NC(=O)[C@H](C)NC(=O)[C@H](CC(=O)O)NC(=O)[C@H](CC(=O)O)NC1=O)NC(=O)[C@H](CC(C)(C)C)NC(=O)[C@H](CC(=O)O)NC2=O (stereo partly drawn) [I-1311, Ac-PL3-Asp-Npg-B5-Asp-Asp-Ala-Ala-Phe-Phe-PyrS2-2C1F-BztA-Thro1] |  |  | 20600 nM | 38 nM | 10 µM (≈ 19.4 µg/mL) | 
CC(=O)N1CCC[C@]12CC=CCCCC1(CCCC=CCCCOC(=O)N3CC[C@@](C(=O)N[C@@H](Cc4ccsc4)C(=O)N[C@@H](Cc4csc5ccccc45)C(=O)N[C@@H](CCC(N)=O)C(N)=O)(C3)NC(=O)[C@H](CC(C)C)NC(=O)[C@H](Cc3ccccc3)NC(=O)[C@H](C)NC(=O)[C@H](C)NC(=O)[C@H]([C@@H](C)O)NC(=O)[C@H](CC(=O)O)NC1=O)NC(=O)[C@H](CC(C)(C)C)NC(=O)[C@H](CC(=O)O)NC2=O (stereo partly drawn) [I-1167, Ac-PL3-Asp-Npg-B5-Asp-Thr-Ala-Ala-Phe-Leu-PyrS2-3Thi-BztA-Gln-NH2] |  |  | 11700 nM | 34 nM | 10 µM (≈ 19 µg/mL) | 
CC(=O)N1CCC[C@]12CC=CCCCC1(CCCC=CCCCOC(=O)N3CC[C@@](C(=O)N[C@@H](Cc4ccccc4Cl)C(=O)N[C@@H](Cc4csc5ccccc45)C(=O)N[C@H](C(N)=O)[C@@H](C)O)(C3)NC(=O)[C@H](CC(C)C)NC(=O)[C@H](Cc3ccccc3)NC(=O)[C@H](C)NC(=O)[C@H](C)NC(=O)[C@H](CC(=O)O)NC(=O)[C@H](CC(=O)O)NC1=O)NC(=O)[C@H](Cc1ccccc1)NC(=O)[C@H](CC(=O)O)NC2=O (stereo partly drawn) [I-1145, Ac-PL3-Asp-Phe-B5-Asp-Asp-Ala-Ala-Phe-Leu-PyrS2-2C1F-BztA-Thr-NH2] |  |  | 30600 nM | 18 nM | 10 µM (≈ 19.4 µg/mL) | 
CC(=O)N1CCC[C@H]1C(=O)N[C@@H](CC(=O)O)C(=O)N[C@@H](CC(C)(C)C)C(=O)N[C@]1(C)CCCC=CCCCOC(=O)N2CC[C@@](C(=O)N[C@@H](Cc3ccsc3)C(=O)N[C@@H](Cc3csc4ccccc34)C(=O)N[C@@H](CCC(N)=O)C(N)=O)(C2)NC(=O)[C@H](CC(C)C)NC(=O)[C@H](Cc2ccccc2)NC(=O)[C@H](C)NC(=O)[C@H](C)NC(=O)[C@H](CC(=O)O)NC(=O)[C@H](CC(=O)O)NC1=O [I-1181, Ac-Pro-Asp-Npg-R5-Asp-Asp-Ala-Ala-Phe-Leu-PyrS2-3Thi-BztA-Gln-NH2] |  |  | > 20000 nM | 297 nM | 50 µM (≈ 92.6 µg/mL) | 226 nM
CC(=O)N1CCC[C@]12CC=CCCCC1(CCCC=CCCCOC(=O)N3CC[C@@](C(=O)N[C@@H](Cc4ccccc4)C(=O)N[C@@H](Cc4csc5ccccc45)C(=O)N[C@@H](CO)C(N)=O)(C3)NC(=O)[C@H]([C@@H](C)O)NC(=O)[C@H](Cc3ccccc3)NC(=O)[C@H](C)NC(=O)[C@H](C)NC(=O)[C@H]([C@@H](C)O)NC(=O)[C@H](CC(=O)O)NC1=O)NC(=O)[C@H](CC(C)(C)C)NC(=O)[C@H](CC(=O)O)NC2=O (stereo partly drawn) [I-1263, Ac-PL3-Asp-Npg-B5-Asp-Thr-Ala-Ala-Phe-Thr-PyrS2-Phe-BztA-Ser-NH2] |  | 12 µM (≈ 22.1 µg/mL) | 20000 nM | 43 nM |  | 
CC(=O)N1CCC[C@]12CC=CCCCC1(CCCC=CCCCOC(=O)N3CC[C@@](C(=O)N[C@@H](Cc4ccsc4)C(=O)N[C@@H](Cc4csc5ccccc45)C(=O)N[C@@H](CCC(N)=O)C(N)=O)(C3)NC(=O)[C@H](CC(C)C)NC(=O)[C@H](Cc3ccc(C#N)cc3)NC(=O)[C@H](C)NC(=O)[C@H](C)NC(=O)[C@H](CC(=O)O)NC(=O)[C@H](CC(=O)O)NC1=O)NC(=O)[C@H](CC(C)(C)C)NC(=O)[C@H](CC(=O)O)NC2=O (stereo partly drawn) [I-1202, Ac-PL3-Asp-Npg-B5-Asp-Asp-Ala-Ala-4CNF-Leu-PyrS2-3Thi-BztA-Gln-NH2] |  |  | 16300 nM | 16 nM | 50 µM (≈ 97.1 µg/mL) | 
CC(=O)N1CCC[C@]12CC=CCCCC1(CCCC=CCCCOC(=O)N3CC[C@@](C(=O)N[C@@H](Cc4ccccc4Cl)C(=O)N[C@@H](Cc4csc5ccccc45)C(=O)N[C@@H](CCC(N)=O)C(N)=O)(C3)NC(=O)[C@H](Cc3ccc(C(F)(F)F)cc3)NC(=O)[C@H](Cc3ccccc3)NC(=O)[C@H](C)NC(=O)[C@H](C)NC(=O)[C@H](CC(=O)O)NC(=O)[C@H](CC(=O)O)NC1=O)NC(=O)[C@H](CC(C)(C)C)NC(=O)[C@H](CC(=O)O)NC2=O (stereo partly drawn) [I-1369, Ac-PL3-Asp-Npg-B5-Asp-Asp-Ala-Ala-Phe-4F3MeF-PyrS2-2C1F-BztA-Gln-NH2] |  |  | 9900 nM | 29 nM | 10 µM (≈ 20.5 µg/mL) | 
CC(=O)N1CCC[C@]12CC=CCCCC1(CCCC=CCCCOC(=O)N3CC[C@@](C(=O)N[C@@H](Cc4ccccc4Cl)C(=O)N[C@@H](Cc4csc5ccccc45)C(=O)N[C@H](C(N)=O)[C@@H](C)O)(C3)NC(=O)[C@H]([C@@H](C)O)NC(=O)[C@H](Cc3ccccc3)NC(=O)[C@H](C)NC(=O)[C@H](CCCCNC(C)C)NC(=O)[C@H](CC(=O)O)NC(=O)[C@H](CC(=O)O)NC1=O)NC(=O)[C@H](CC(C)(C)C)NC(=O)[C@H](CC(=O)O)NC2=O (stereo partly drawn) [I-1273, Ac-PL3-Asp-Npg-B5-Asp-Asp-iPrLys-Ala-Phe-Thr-PyrS2-2C1F-BztA-Thr-NH2] |  | 32 µM (≈ 64.2 µg/mL) | > 20000 nM | 9 nM |  | 

Source: patent publication US20240116985A1, “STAPLED PEPTIDES AND METHODS THEREOF” (priority 2020, published 2024)
